Source: patent US20110313233A1, “DOWN-REGULATION OF COLD SHOCK PROTEINS FOR CANCER TREATMENT” (THE JOHNS HOPKINS UNIVERSITY, priority 2010, published 2011)

Test system: LNCaP cells
Assay: Western blotting of Cyclin B1, Cyclin D1, γ-H2A.X, phosph-p53, p21
Assay type: cell-based
Settings: scrambled siRNA controls
Experimental: Western blotting: Twenty-five micrograms of protein were separated on 10% to 20% SDS-PAGE and transferred onto PVD filters (Millipore, Bedford, Mass.). Membranes were incubated with primary antibodies overnight at 4° C. followed by horseradish peroxidase-conjugated secondary antibodies, and developed with the Super Signal West Dura Extended Duration Substrate kit (Pierce). RBM3 antibody was generated in a rabbit against as peptide (Sigma-Gneosys, The Woodlands, Tex.). HSPA1A and CIRBP antibodies were obtained from Lifespan Biosciences (ProteinTech Group, Chicago, Ill.), phospho-Histone H2A.X antibody was obtained from Millipore. Other antibodies were purchased from Cell Signaling (Danvers, Mass.) and Santa Cruz (Santa Cruz, Calif.)
Prostate cancer cells PC-3 (FIG. 12A) and LNCaP (FIG. 12B) were transfected with 100 nM RBM3 or CIRBP SMARTpool siRNA. Forty-eight hours after transfection, cells were treated with 4 μg/ml cDDP or 1 μg/ml ADM for 4 h, and then moved back to normal medium for another 16 h. Cell lysates were subjected to Western blotting to detect Cyclin B1, Cyclin D1, phosph-histone H2A.X (Ser139) (γ-H2A.X), phosph-p53 (Ser15), and p21. Actin was used as a control for protein loading.

Row | Compound | activation of p53 by drug treatment
1 | COc1cccc2c1C(=O)c1c(O)c3c(c(O)c1C2=O)C[C@@](O)(C(=O)CO)C[C@@H]3O[C@H]1C[C@H](N)[C@H](O)[C@H](C)O1 [ADM, adriamycin] | activated
2 | [NH2][Pt]([NH2])([Cl])[Cl] [cDDP, cisplatin] | activated
